Results as given in the supplement of paper PMC13380429.

How the values were obtained:
[1] = tested on: A549-ACE2 infected with SARS-CoV-2; experiment: morphology score (similarity to uninfected cells); higher = more like uninfected cells; conditions: 24 h
Vero E6 [2] = experiment: drug sensitivity score (DSS) for viability; higher = more toxic; extreme values may be limits of the assay; conditions: 72 h
Caco-2 [3] = experiment: as above; conditions: 72 h
HepG2 [4] = experiment: as above; conditions: 72 h
U2OS [5] = experiment: as above; conditions: 72 h
Vero E6 [6] = experiment: cell viability relative to DMSO; higher = less toxic; conditions: 72 h
Caco-2 [7] = experiment: as above; conditions: 72 h
HepG2 [8] = experiment: as above; conditions: 72 h
U2OS [9] = experiment: as above; conditions: 72 h
[10] = tested on: A549-ACE2 infected with SARS-CoV-2; experiment: cell count relative to DMSO; higher = less toxic; conditions: 24 h
Vero E6 [11] = experiment: relative viability EC50 (midpoint between 100% and the lowest measured viability); higher = less toxic; conditions: 72 h
Caco-2 [12] = experiment: as above; conditions: 72 h
HepG2 [13] = experiment: as above; conditions: 72 h
U2OS [14] = experiment: as above; conditions: 72 h
[15] = tested on: A549-ACE2 infected with SARS-CoV-2; experiment: SARS-CoV-2 infection rate relative to DMSO; higher = more infection; conditions: 24 h
A549-ACE2 = experiment: drug-induced phospholipidosis relative to tamoxifen; higher = more phospholipidosis
Calu-3 [16] = experiment: drug sensitivity score (DSS) for viability; higher = more toxic; extreme values may be limits of the assay; conditions: 72 h
Calu-3 [17] = experiment: cell viability relative to DMSO; higher = less toxic; conditions: 72 h
Calu-3 [18] = experiment: relative viability EC50 (midpoint between 100% and the lowest measured viability); higher = less toxic; conditions: 72 h

Cc1[nH]cnc1-c1ccc(Cl)cc1 [lofemizole]
Conditions | SARS-CoV-2 infection rate, [15] [%] | cell count, [10] [%] | cell viability, Caco-2 [7] [%] | cell viability, HepG2 [8] [%] | cell viability, U2OS [9] [%] | cell viability, Vero E6 [6] [%] | morphology score, [1]
1 nM | – | – | 98.4 | 99.4 | 95.9 | 103 | –
10 nM | – | – | 94.9 | 102 | 97.2 | 97 | –
100 nM | – | – | 95.2 | 105 | 97.5 | 96.5 | –
0.3 µM | 94 | 97 | – | – | – | – | 0.05
1000 nM | – | – | 98.7 | 93 | 99.2 | 96.7 | –
3 µM | 104 | 102 | – | – | – | – | 0.07
10 µM | 105 | 100 | – | – | – | – | -0.16
10000 nM | – | – | 101 | 107 | 103 | 102 | –
30 µM | 100 | 94 | – | – | – | – | -0.13

Conditions | drug sensitivity score | relative viability EC50 [µM]
Caco-2 [3] | 0 | –
Caco-2 [12] | – | > 10
HepG2 [4] | 0 | –
HepG2 [13] | – | > 10
U2OS [5] | 0 | –
U2OS [14] | – | > 10
Vero E6 [2] | 0 | –
Vero E6 [11] | – | > 10

drug-induced phospholipidosis [%], A549-ACE2
Conditions | 0.3 µM | 0.833333 µM | 3.33333 µM | 6.66667 µM | 10 µM | 30 µM
24 h | 3.89 | -1.13 | 0.51 | -0.91 | 0.71 | 5.39
48 h | 4.07 | 0.92 | 2.92 | 3.98 | 3.67 | 11.9
72 h | 4.05 | 0.285 | 0.756 | 2.05 | 2.84 | 12.6

C#C[C@]1(O)CC[C@H]2[C@@H]3CCc4cc(OC5CCCC5)ccc4[C@H]3CC[C@@]21C [quinestrol]
Conditions | SARS-CoV-2 infection rate, [15] [%] | cell count, [10] [%] | cell viability, Caco-2 [7] [%] | cell viability, Calu-3 [17] [%] | cell viability, HepG2 [8] [%] | cell viability, U2OS [9] [%] | cell viability, Vero E6 [6] [%] | morphology score, [1]
1 nM | – | – | 99.4 | 97.9 | 92.1 | 102 | 98.4 | –
10 nM | – | – | 92.1 | 98.6 | 93.2 | 98.9 | 104 | –
100 nM | – | – | 98.7 | 99.8 | 88.9 | 104 | 100 | –
0.3 µM | 103 | 105 | – | – | – | – | – | -0.03
1000 nM | – | – | 96.5 | 91.1 | 95.5 | 100 | 104 | –
3 µM | 85 | 110 | – | – | – | – | – | 0.43
10 µM | 41 | 85 | – | – | – | – | – | 0.68
10000 nM | – | – | 67.8 | 41 | 76.6 | 93.8 | 87.4 | –
30 µM | 42 | 23 | – | – | – | – | – | 0.01

Conditions | drug sensitivity score | relative viability EC50 [µM]
Caco-2 [3] | 2 | –
Calu-3 [16] | 4.7 | –
Calu-3 [18] | – | 1.98
HepG2 [4] | 1.3 | –
HepG2 [13] | – | > 10
U2OS [5] | 0 | –
U2OS [14] | – | > 10
Vero E6 [2] | 0 | –
Vero E6 [11] | – | > 10

drug-induced phospholipidosis [%], A549-ACE2
Conditions | 0.3 µM | 0.833333 µM | 3.33333 µM | 6.66667 µM | 10 µM | 30 µM
24 h | 11.1 | 13.7 | 17.2 | 16.9 | 13.9 | 23.3
48 h | 12.2 | 17.8 | 21.2 | 25.8 | 23.6 | 37.6
72 h | 8.56 | 16.2 | 19.1 | 27.3 | 29.2 | –

CNC(=O)c1cc(Oc2ccc(NC(=O)Nc3ccc(Cl)c(C(F)(F)F)c3)cc2)ccn1 [sorafenib]
Conditions | SARS-CoV-2 infection rate, [15] [%] | cell count, [10] [%] | cell viability, Caco-2 [7] [%] | cell viability, Calu-3 [17] [%] | cell viability, HepG2 [8] [%] | cell viability, U2OS [9] [%] | cell viability, Vero E6 [6] [%] | morphology score, [1]
1 nM | – | – | 95.1 | 107 | 105 | 98.7 | 97.4 | –
10 nM | – | – | 93.2 | 104 | 113 | 99.1 | 98.9 | –
0.1 µM | 110 | 97 | – | – | – | – | – | -0.27
100 nM | – | – | 96.1 | 109 | 99.2 | 103 | 104 | –
0.3 µM | 103 | 101 | – | – | – | – | – | -0.32
1 µM | 116 | 92 | – | – | – | – | – | -0.4
1000 nM | – | – | 99.1 | 108 | 80.5 | 111 | 113 | –
3 µM | 103 | 93 | – | – | – | – | – | -0.27
10000 nM | – | – | 47.9 | 82.2 | 12.7 | 39.7 | 55.6 | –

Conditions | drug sensitivity score | relative viability EC50 [µM]
Caco-2 [3] | 2.9 | –
Caco-2 [12] | – | 3.04
Calu-3 [16] | 0.2 | –
Calu-3 [18] | – | > 10
HepG2 [4] | 7.9 | –
HepG2 [13] | – | 1.64
U2OS [5] | 2.6 | –
U2OS [14] | – | 3.88
Vero E6 [2] | 1.7 | –

drug-induced phospholipidosis [%], A549-ACE2
Conditions | 0.3 µM | 0.833333 µM | 3.33333 µM | 6.66667 µM | 10 µM | 30 µM
24 h | -0.66 | -4.32 | -10.5 | -0.85 | -20.6 | -18.5
48 h | 0.68 | -2.57 | -3.57 | 0.31 | – | –
72 h | 3.23 | -1.46 | -1.25 | -4.18 | – | –

CC(C)n1cnc2c(NCCc3ccc(O)cc3)nc(-c3csc4ccccc34)nc21 [stemregenin-1]
Conditions | SARS-CoV-2 infection rate, [15] [%] | cell count, [10] [%] | cell viability, Caco-2 [7] [%] | cell viability, Calu-3 [17] [%] | cell viability, HepG2 [8] [%] | cell viability, U2OS [9] [%] | cell viability, Vero E6 [6] [%] | morphology score, [1]
1 nM | – | – | 92.3 | 99.6 | 92.7 | 103 | 99.4 | –
10 nM | – | – | 104 | 109 | 91.9 | 101 | 101 | –
100 nM | – | – | 87.3 | 101 | 97.4 | 95.1 | 104 | –
0.3 µM | 93 | 101 | – | – | – | – | – | 0.34
1000 nM | – | – | 99.3 | 80.4 | 91.6 | 96.3 | 100 | –
3 µM | 84 | 103 | – | – | – | – | – | 0.46
10 µM | 60 | 117 | – | – | – | – | – | 0.84
10000 nM | – | – | 54 | 54.3 | 70.7 | 80.7 | 85.7 | –
30 µM | 26 | 45 | – | – | – | – | – | 0

Conditions | drug sensitivity score | relative viability EC50 [µM]
Caco-2 [3] | 2.5 | –
Calu-3 [16] | 5 | –
HepG2 [4] | 2.3 | –
U2OS [5] | 1 | –
U2OS [14] | – | > 10
Vero E6 [2] | 0.2 | –
Vero E6 [11] | – | > 10

drug-induced phospholipidosis [%], A549-ACE2
Conditions | 0.3 µM | 0.833333 µM | 3.33333 µM | 6.66667 µM | 10 µM | 30 µM
24 h | 6.01 | 1.64 | 8.25 | 15.8 | 28.5 | 16.7
48 h | 9.44 | 5.9 | 8.13 | 14.7 | 21.9 | –
72 h | 7.3 | 7.32 | 13.4 | 21.2 | 27 | –
